In ChEMBL document CHEMBL1143465, “New fluorinated pyrrolidine and azetidine amides as dipeptidyl peptidase IV inhibitors” (Bioorg Med Chem Lett, 2005):

What follows are compounds tested on Mus musculus (assay: Percent inhibition of blood glucose concentration measured 30 min after 10 mg/kg dosing to fasted mice followed 15 min later by 1 g/kg oral glucose load).
Format: functional

Compound	inhibition in vivo at 10 mg/kg [%]
N[C@H](C(=O)N1CC(F)C(F)C1)C1CCCCC1 (stereo partly specified)	60
N[C@H](C(=O)N1CC(F)(F)C(F)(F)C1)C1CCCCC1	59
N[C@H](C(=O)N1CCCC1)C1CCCCC1	69
N[C@H](C(=O)N1CCC(F)(F)C1)C1CCCCC1	78
N[C@H](C(=O)N1CC(F)(F)C1)C1CCCCC1	109
N[C@H](C(=O)N1CC(F)C1)C1CCCCC1	70
